Laboratory results reported in patent US8609659B2, “Substituted 3,8-diazabicyclo[3.2.1]octane compounds” (Neuroscienze Pharmaness S.C.A.R.L., priority 2009, dated 2013).
Like-named read-outs stand apart in the source and are kept apart here.

Assays:
μ opioidergic receptors = target: T1, μ opioidergic receptors (Mus musculus, UniProt P42866); test: Radioreceptorial binding, μ opioidergic receptors ([3H]-DAMGO, mouse brain membranes); details: 1 nM [3H]-DAMGO, CD1 mouse brain membranes, 25° C., 60 minutes
T1 construct: from tissue; host or cells: CD1 mouse brain (excluding cerebellum) membranes

δ opioidergic receptors = target: T2, δ opioidergic receptors (Mus musculus, UniProt P32300); test: Radioreceptorial binding, δ opioidergic receptors ([3H]-DPDPE, mouse brain membranes); details: 1 nM [3H]-DPDPE, CD1 mouse brain membranes, 25° C., 60 minutes
T2 construct: from tissue; host or cells: CD1 mouse vas deferens segments (isolated organ)

k opioidergic receptors = target: T3, k opioidergic receptors (Mus musculus, UniProt P33534); test: Radioreceptorial binding, k opioidergic receptors (3H-U 69.593, mouse brain membranes)
T3 construct: the complete brain (excluding the cerebellum) was quickly dissected and stored in ice; from tissue; host or cells: CD1 mouse brain (excluding cerebellum) membranes
Text: The affinity of the compounds synthesized towards the opioidergic receptors μ, δ, k has been evaluated in vitro by radioreceptorial binding studies by using the method reported hereinunder.
For evaluating the affinity of a compound to a particular receptor(s) it is used a preparation of a tissue wherein the particular receptor(s) is (are) present, with which the compound is contacted. The tested compound is challenged with a radioactive labelled compound whose affinity for the same receptor(s) is known. The ability of the tested compound to displace the radioactive compound from the receptor gives an index of the affinity of the compound under test for the specific receptor. The amount of radioactivity present in the receptor-compound complex allows furthermore to calculate with great accuracy the amount of compound bound to the receptor. By said method it is therefore possible to quickly establish the affinity of a new compound towards a specific receptor and thus determine its pharmacological activity. With the same experimental protocol it is possible to evaluate the affinity of the compound towards other receptors and thus establishing the specificity degree of the compound towards these further receptors.
The experimentation has been carried out according to the guide lines of the European Community for the animal experimentation (EEC n. 86/609), by using laboratory animals (CD1 Charles River Italy male mice, Calco, LC, Italy) lodged twenty per cage, under standard stabulation conditions (temperature 22±2° C., relative humidity 60%, artificial lighting with light/dark cycle of 12 hours). The food and water were ad libitum.
Receptors k: CD1 male mice weighing 20-25 g were used. The animals were sacrificed by cervical dislocation and the complete brain (excluding the cerebellum) was quickly dissected and stored in ice. The tissue was homogeneized in 40 volumes (w/v) of Tris-HCl buffer (50 Mm, pH 7.4) by an Ultra-Turrax, then centrifuged for 20 minutes at 48,000×g in a centrifuge refrigerated at 4° C. The […] was resuspended in the same buffer and incubated at 37° C. for 30 minutes in an oscillating bath. At the end of the incubation the suspension was centrifuged at 48,000×g for 15 minutes and the obtained pellets resuspended in 10 volumes of Tris-HCl buffer. The binding experiment was carried out in a 1 ml volume of the suspension at the temperature of 25° C. with a protein content in the sample of about 800-1000 μg. Incubation was carried out for 60 minutes in the presence of various concentrations of the ligand ^3H-U 69.593 (41.7 Ci/mmole). The non specific binding was determined in the presence of U69593 (10 μM). Incubation was then interrupted by performing a quick filtration by filtration apparatus Brandell®, Gaithersburg, Md., USA), by using GF/C filters (Whatman®). Receptors μ and δ: the experiments were carried out according to the method described by Unterwald (1995), by using CD1 male mice weighing 20-25 g, lodged twenty in a cage, under standard stabulation conditions (temperature 22±2° C., relative humidity 60%, artificial lighting with light/dark cycle of 12 hours). After sacrifice, the complete brain (excluding the cerebellum) was quickly dissected. The so obtained tissues were rapidly homogenized, by a Polytron® equipment in 50 volumes of Tris HCl buffer (50 mM), pH 7.4 and the homogenate centrifuged at 48,000×g for 20 minutes at 4° C. The pellets obtained after centrifugation were suspended in 50 volumes of the same buffer and the so prepared suspensions were incubated at 37° C. for 45 minutes, in an oscillating bath, for making easier the separation of the endogenous opioids from the receptors. At the end of the incubation the suspensions were centrifuged at 48,000×g, for 20 minutes at 4° C. and the resulting pellets resuspended in 40 volumes of the Tris HCl (50 mM) buffer, pH 7.4. The suspension of cerebral membranes was used for the binding tests. […]

mouse = type: in vivo; details: 5 mg/Kg i.p., average ± SEM of 6 animals
Description: In the Tail Flick test it is determined the time elapsed between the exposure of one part of the mouse tail (2 cm measured from the tail tip) to a small heat source and the time when the animal moves away the tail (Ruiu) S. et al. in J. Pharmacol. Exp. Ther.; 306 (1) (2003) 363-370). This time interval is automatically calculated by a specific equipment for the Tail-Flick test (Apparatus for the Tail Flick, Ugo Basile, Italy). The equipment is provided with an infrared lamp that is the heat regulatable source. For avoiding lesions to the tail tissues a maximum latency time has been fixed (cut-off=12 sec), after which the tail is moved away from the heat source.
The values of the latency time obtained in the experimentation were expressed in MPE % (maximum possible effect %), according to the formula:
[formula] wherein: Test Latency is the time in seconds elapsed before the animal moves away the tail from the heat source, Base Latency is the time in seconds elapsed before the same, untreated animal moves away the tail from the heat source.
The analgesic potency of the compound obtained in Example 6.1 was evaluated. The compound was solubilized in an aqueous solution (carrier), formed of a mixture of a physiological solution, ethanol and Cremophor® EL in the ratios by volume: 18.5:1.0:0.5. The blank or control was the carrier. The test compound was administered by intraperitoneal (i.p.) route, by using a solution volume to obtain a dose of 5 mg/kg.
The duration of the analgesic effect was evaluated by determining the MPE % values obtained at different times (20, 40, 60, 120 minutes) from administration of the compound and of the corresponding control (carrier).
Example 13 was repeated but using the compound synthesized in Ex. 6.9. The analgesic activity was evaluated at 30, 60, 120 and 240 minutes from the administration of the compound. The compound was administered at the dose of 5 mg/Kg after solubilization in an aqueous solution (carrier) formed of physiological solution, ethanol and Cremophor® EL in the same ratios as indicated in Example 13.
In order to evaluate the property of the compounds of formula (I) in the modulation of the analgesic effect of morphine, the Tail Flick test was carried out by using either only morphine or morphine in association with the compound of Ex. 6.9. The procedure described in Ex. 13 was repeated by recording the MPE % values at different times from the administration of the tested compounds: 30, 60, 120 and 240 minutes.

T2 sequence (P32300 whole entry): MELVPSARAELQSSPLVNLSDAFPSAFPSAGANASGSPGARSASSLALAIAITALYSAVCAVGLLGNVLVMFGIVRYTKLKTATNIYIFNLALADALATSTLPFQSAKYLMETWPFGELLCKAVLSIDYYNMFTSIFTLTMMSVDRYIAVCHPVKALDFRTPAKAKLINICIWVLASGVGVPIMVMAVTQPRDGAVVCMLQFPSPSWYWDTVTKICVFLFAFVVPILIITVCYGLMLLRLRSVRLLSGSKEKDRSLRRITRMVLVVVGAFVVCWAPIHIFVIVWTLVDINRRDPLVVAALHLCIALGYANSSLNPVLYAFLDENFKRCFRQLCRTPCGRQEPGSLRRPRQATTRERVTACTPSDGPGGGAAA
T1 sequence (P42866 whole entry): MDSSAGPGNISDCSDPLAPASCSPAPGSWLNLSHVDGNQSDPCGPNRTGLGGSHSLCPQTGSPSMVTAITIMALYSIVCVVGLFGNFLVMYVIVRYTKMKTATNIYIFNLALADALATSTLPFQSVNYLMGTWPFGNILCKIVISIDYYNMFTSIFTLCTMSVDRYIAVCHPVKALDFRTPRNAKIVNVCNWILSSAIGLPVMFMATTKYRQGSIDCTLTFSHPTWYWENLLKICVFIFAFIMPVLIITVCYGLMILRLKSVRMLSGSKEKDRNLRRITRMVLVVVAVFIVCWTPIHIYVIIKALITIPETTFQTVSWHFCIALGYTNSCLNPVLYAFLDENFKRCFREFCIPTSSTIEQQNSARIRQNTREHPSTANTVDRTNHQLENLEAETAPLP
T3 sequence (P33534 whole entry): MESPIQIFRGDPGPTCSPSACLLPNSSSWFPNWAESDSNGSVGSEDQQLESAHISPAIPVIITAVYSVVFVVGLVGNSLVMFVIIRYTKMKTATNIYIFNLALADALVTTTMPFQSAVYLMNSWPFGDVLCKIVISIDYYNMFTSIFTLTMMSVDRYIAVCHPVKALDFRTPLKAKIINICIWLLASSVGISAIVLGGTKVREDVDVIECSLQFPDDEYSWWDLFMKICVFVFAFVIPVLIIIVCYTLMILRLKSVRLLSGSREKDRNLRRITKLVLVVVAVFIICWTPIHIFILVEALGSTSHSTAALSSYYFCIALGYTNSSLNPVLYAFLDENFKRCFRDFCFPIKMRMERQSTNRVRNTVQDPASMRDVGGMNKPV

| SMILES | Ki (μ opioidergic receptors) [nM] | Ki (δ opioidergic receptors) [nM] | Ki (k opioidergic receptors) [nM] | MPE % (mouse; 20 min) [%] | MPE % (mouse; 40 min) [%] | MPE % (mouse; 60 min) [%] | MPE % (mouse; 120 min) [%] | Ki (k opioidergic receptors; 3H-U 69.593, CD1 mouse brain membranes, 25° C., 60 minutes, read-out: Ki k) [nM] | MPE % (mouse; 30 min) [%] | MPE % (mouse; 240 min) [%] |
| --- | --- | --- | --- | --- | --- | --- | --- | --- | --- | --- |
| C=CCN1C2CCC1C1CCC2N1C(c1ccc(C(=O)N(CC)CC)cc1)c1cccc(OC)c1 (centres unmarked) [Example 6.1, 4-[(10-allyl-9,10-diazatricyclo[4.2.1.1^2,5]dec-9-yl)-(3-methoxyphenyl)methyl]-N,N-diethylbenzamide] | 1630 ± 186 | 0.203 ± 0.032 | 55 ± 25 | 15.1 ± 3.5 | 50.1 ± 12.0 | 20.0 ± 3.0 | 13.2 ± 2.8 | – | – | – |
| C=CCN1C2CCC1C1CCC2N1C(c1ccc(C(=O)N(CC)CC)cc1)c1cccc(O)c1 (centres unmarked) [Example 6.9, 4-[(10-allyl-9,10-diazatricyclo[4.2.1.1^2,5]dec-9-yl)-(3-hydroxyphenyl)methyl]-N,N-diethylbenzamide] | 20 ± 0.5 | 0.23 ± 0.03 | – | – | – | 32.8 ± 10.0 | 18.5 ± 2.0 | 4.8 ± 0.9 | 30.1 ± 2.7 | 1.2 ± 0.6 |
